Literature values, collected in patent US11191866B2, “Dressing enabling the controlled and prolonged release of metformin” (Urgo Recherche Innovation et Developpement, priority 2016, dated 2021).

Conditions: rats; radioactively marked, deposited on a wound in a gel

For `CN(C)C(=N)N=C(N)N` [metformin], the “time remaining at the local level on the wound” value is given as “remained for a very short period of time at the local level”.
